Assay results reported in ChEMBL document CHEMBL5465560, “Selectivity Literature for EUbOPEN Chemogenomic Library” (2024).
Positions count from the first letter of the chain named.

What was measured:
[1] = target: T1, Inhibitor of nuclear factor kappa-B kinase subunit epsilon (Homo sapiens) (UniProt Q14164); conditions: at 10 µM
T1 sequence (whole entry): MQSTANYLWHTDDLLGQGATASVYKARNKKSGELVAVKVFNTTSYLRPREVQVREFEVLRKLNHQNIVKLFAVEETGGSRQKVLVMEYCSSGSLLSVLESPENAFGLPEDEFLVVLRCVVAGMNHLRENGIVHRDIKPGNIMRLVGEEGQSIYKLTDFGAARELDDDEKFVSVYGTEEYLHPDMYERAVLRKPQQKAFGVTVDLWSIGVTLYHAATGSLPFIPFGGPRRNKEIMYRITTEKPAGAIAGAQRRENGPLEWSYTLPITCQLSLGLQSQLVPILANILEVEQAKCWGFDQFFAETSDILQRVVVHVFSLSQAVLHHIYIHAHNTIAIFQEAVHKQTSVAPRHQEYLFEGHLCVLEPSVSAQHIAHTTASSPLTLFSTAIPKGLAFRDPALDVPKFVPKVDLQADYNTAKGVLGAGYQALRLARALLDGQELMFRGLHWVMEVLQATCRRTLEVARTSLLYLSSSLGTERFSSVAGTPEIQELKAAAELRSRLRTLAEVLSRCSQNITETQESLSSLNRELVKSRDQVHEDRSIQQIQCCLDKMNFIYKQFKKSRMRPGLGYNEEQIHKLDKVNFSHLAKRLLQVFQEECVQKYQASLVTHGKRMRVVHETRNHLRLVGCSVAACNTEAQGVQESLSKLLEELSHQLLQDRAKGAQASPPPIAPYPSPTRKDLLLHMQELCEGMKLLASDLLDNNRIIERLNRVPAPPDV

[2] = tested on: Receptor-type tyrosine-protein kinase FLT3 (Homo sapiens), P36888 [UNDEFINED MUTATION]; assay: (§1) Selectivity interaction (KinomeScan (DiscoverX)) EUB0000695a FLT3; conditions: at 100 nM
[3] = target: Receptor-type tyrosine-protein kinase FLT3 (Homo sapiens) (UniProt P36888); assay: as §1; conditions: at 100 nM
[4] = tested on: T2, Receptor-type tyrosine-protein kinase FLT3 (Homo sapiens), P36888 [R834Q]; assay: as §1; conditions: at 100 nM
T2 sequence (whole entry): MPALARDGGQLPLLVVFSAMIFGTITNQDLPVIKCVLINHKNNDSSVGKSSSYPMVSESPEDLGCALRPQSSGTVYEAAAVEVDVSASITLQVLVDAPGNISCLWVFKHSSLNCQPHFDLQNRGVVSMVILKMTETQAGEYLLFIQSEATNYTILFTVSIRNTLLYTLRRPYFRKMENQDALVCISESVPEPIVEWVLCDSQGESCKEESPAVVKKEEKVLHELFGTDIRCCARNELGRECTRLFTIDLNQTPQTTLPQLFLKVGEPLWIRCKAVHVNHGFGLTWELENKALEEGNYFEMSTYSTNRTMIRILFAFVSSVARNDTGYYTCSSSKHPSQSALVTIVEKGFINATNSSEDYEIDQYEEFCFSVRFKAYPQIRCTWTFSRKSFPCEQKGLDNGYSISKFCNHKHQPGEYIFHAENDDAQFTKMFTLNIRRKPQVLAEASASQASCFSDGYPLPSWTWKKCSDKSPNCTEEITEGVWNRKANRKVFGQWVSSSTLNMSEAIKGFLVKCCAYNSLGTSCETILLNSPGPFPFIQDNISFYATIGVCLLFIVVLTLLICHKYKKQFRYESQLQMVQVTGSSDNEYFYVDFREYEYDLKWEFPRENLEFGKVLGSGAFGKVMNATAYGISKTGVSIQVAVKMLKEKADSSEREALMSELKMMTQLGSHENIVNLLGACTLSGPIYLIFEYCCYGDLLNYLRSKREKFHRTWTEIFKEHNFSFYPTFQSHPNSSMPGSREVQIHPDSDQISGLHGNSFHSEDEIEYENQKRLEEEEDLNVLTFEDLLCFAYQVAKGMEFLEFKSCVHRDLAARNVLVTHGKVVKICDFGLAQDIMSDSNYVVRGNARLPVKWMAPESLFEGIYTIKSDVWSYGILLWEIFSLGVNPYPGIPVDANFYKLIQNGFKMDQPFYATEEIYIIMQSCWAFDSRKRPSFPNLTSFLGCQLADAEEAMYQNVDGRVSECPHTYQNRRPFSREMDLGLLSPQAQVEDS

[5] = tested on: T3, Receptor-type tyrosine-protein kinase FLT3 (Homo sapiens), P36888 [D835H]; assay: as §1; conditions: at 100 nM
T3 sequence (whole entry): T2 sequence (whole entry) with Q834R, D835H

SMILES: Cc1cc([C@@H](C)Nc2ccccc2C(=O)O)c2nc(N3CCOCC3)cc(=O)n2c1 [AZD-6482]
- % of control [1]: 85%

SMILES: Cc1cc(F)c(C(=O)Nc2cccc(-c3nncn3C(C)C)n2)cc1-n1cnc(C2CC2)c1
- % of control [2]: 100%
- % of control [3]: 100%
- % of control [4]: 100%
- % of control [5]: 100%
